Patent US20250352555A1, “METHOD OF INCREASING IMMUNE CELL ACTIVATION AND/OR TREATING CANCER USING DIBENZOXAZEPINONES” (VASCULAR THERAPEUTICS PTY LTD, priority 2022, published 2025)

How the values were obtained:
PD-L1 = assay: Immunohistochemistry of B16F10 tumors (Day 17), PD-L1; type: in vivo, mouse; conditions: B16F10 tumors Day 17, 200 mg/kg i.p., vs vehicle
Text: (§1) Immunohistochemical staining and analyses. Rabbit monoclonal anti-CD3 (cat. no. ab16669; mouse, rat and human reactive), rabbit monoclonal anti-PD-1 (cat. no. ab214421), rabbit monoclonal anti-CD68 (cat. no. ab125212) antibodies were obtained from Abcam, rabbit monoclonal anti-phospho-ERK (Thr^202/Tyr^204) (cat. no. CST4370), rabbit monoclonal total ERK (cat. no. CST4695), antibodies were obtained from Cell Signaling Technology. Rabbit polyclonal anti-PD-L1 (cat. no. PA5-20343) antibody was obtained from ThermoFisher.
Formalin fixed, paraffin embedded sections were prepared from tumors. Heat-induced epitope retrieval was applied to all deparaffinized sections (4 μm sections on Superfrost slides) with citrate buffer, pH 6.0 for 5 min at 110° C. Sections were blocked with Dual Endogenous Enzyme Block (DAKO, S2003) for 10 min and then with 2% skim milk for 20 min. Slides were incubated with primary antibody for 60 min at room temperature or overnight at 4° C. and then for 10 min with probe of MACH3 Rabbit AP-Polymer Detection solution (Biocare Medical, M3R533 G, H, L). […] Integrated optical density (IOD) or area of positive staining (red chromagen) was assessed using Image-Pro Plus software (Cybernetics, Bethesda, MD, USA). Positive staining was the average of quantitation in 4-8 fields of view under 20× or 40× objectives. […]

IFN-γ = assay: Mouse serum IFN-γ levels by ELISA; type: in vivo; conditions: B16F10 tumor-bearing mice Day 17, 200 mg/kg i.p., vs vehicle
Method: Mouse serum IFN-γ levels. Whole blood was collected from Day 17 mice and spun at 1500 g for 10 min at 4° C. Serum was extracted from the top layer and stored at −80° C. IFN-γ levels were measured using the mouse IFN-γ (Improved) ELISA kit (Invitrogen, cat. no. KMC4021) according to the manufacturer's protocol, with absorbance being read at 450 nm. GraphPad Prism 9 software was used to generate the standard curve. IFN-γ levels in mouse serum were measured alongside the standard curve by using GraphPad Prism 9.
IFN-γ is a biomarker of cellular immunity and the antitumor immune response. Elevated IFN-γ is associated with a systemic immune response in cancer patients and tumor-bearing mice after immune checkpoint therapy. Since IFN-γ is produced by T cells, levels of IFN-γ in the sera of tumor-bearing mice treated with vehicle or BT2 were determined.

p-ERK = assay: Immunohistochemistry of B16F10 tumors (Day 17), p-ERK; type: in vivo, mouse; conditions: B16F10 tumors Day 17, 200 mg/kg i.p.
Text: as §1
(§2) Formalin fixed, paraffin embedded sections were prepared from tumors. Heat-induced epitope retrieval was applied to all deparaffinized sections (4 μm sections on Superfrost slides) with citrate buffer, pH 6.0 for 5 min at 110° C. […] Integrated optical density (IOD) or area of positive staining (red chromagen) was assessed using Image-Pro Plus software (Cybernetics, Bethesda, MD, USA). Positive staining was the average of quantitation in 4-8 fields of view under 20× or 40× objectives.
To assess the effect of BT2 in the same model, C57BL/6J mice bearing s.c. B16F10 tumors were administered with BT2 or vehicle (200 mg/kg or 20 ml/kg, respectively, i.p.) once a day on a 5 days-on/2 days-off schedule. […] Tumor size on Day 17 measured using callipers (FIG. 10A) correlated with isolated weighed tumors (FIG. 10B).

CD68 = assay: Immunohistochemistry of B16F10 tumors (Day 17), CD68; type: in vivo, mouse; conditions: B16F10 tumors Day 17, 200 mg/kg i.p.
Text: as §1
as §2, with “C. Sections were blocked with Dual Endogenous Enzyme Block (DAKO, S2003) for 10 min and then with 2% skim milk for 20 min.” for “C.”
Immunohistochemical analysis was performed on B16F10 tumors (Day 17) from BT2- or vehicle-treated mice with antibodies to CD68. IOD and tissue area were assessed using Image-Pro Plus and the IOD/μm^2 was determined.

CD28 = CD28 blockade experiment, JUN Western blot in Jurkat T cells; type: cell-based, human; conditions: 3 μM BT2 and 3 μM EGF, 24 h
Method: CD28 blockade experiments. BT2 (3 nmol), vehicle or a mix of BT2 (3 nmol) and recombinant CD28 (3 nmol, Sino biological cat. no. 90182-C08H) or EGF (3 nmol, Sigma cat. no. E9644) in 150 μl growth medium (10% FBS/RPMI 1640 medium) was preincubated for 30 min at 37° C. The mixtures were added to 12-well plates containing 850 μl of 10% FBS/RPMI 1640 medium and 0.5×10^6 Jurkat T cells/well. After 24 h, total cell lysates were prepared in RIPA buffer. Lysates (10 μg) were resolved by SDS-PAGE and transferred to Immobilon-P polyvinylidene difluoride (PVDF) membranes (Millipore, USA). Membranes were blocked with 5% skim milk and incubated with rabbit monoclonal anti-JUN (Abcam, cat. no. ab32137) antibody, mouse monoclonal β-actin antibody (Sigma-Aldrich, cat. no. A5316), This was followed by incubation with horseradish peroxidase-conjugated secondary goat anti-rabbit (DAKO, cat. no. P0448) or goat anti-mouse (DAKO, cat. no. P0447) antibody. Chemiluminescence was detected using the Western Lightning Chemiluminescence system (Thermo Scientific, USA) and ImageQuant™ LAS 4000 biomolecular imager (GE Healthcare Life Sciences, USA). Band intensity in images generated with the LAS 4000 was quantified using NIH Image J. […]

CCOC(=O)Nc1ccc2c(c1)C(=O)N(CC)c1ccccc1O2 [BT2, (10-ethyl-11-oxo-10,11-dihydro-dibenzo[b,f][1,4]oxazepin-2-yl)-carbamic acid ethyl ester]
PD-L1 levels in tumors (IHC) (PD-L1): increased | circulating (serum) IFN-γ levels (IFN-γ): elevated | ERK phosphorylation in tumors (IHC) (p-ERK): suppression of ERK phosphorylation | CD68 levels in the tumors (IHC) (CD68): reduced levels of CD68 | induction of JUN after preincubation of BT2 with EGF (CD28): still induced JUN
